In ChEMBL document CHEMBL3507680, “University of Dundee, Gates Library screen for HepG2 cell viability”:

Test: Human HepG2 cell viability assay in 384 well format
Assay type: toxicity, cell-based
Design: dose 125 nL, time 70.5 hour; cytotoxicity at 70.5 h: concentration not given beside the values
Settings: HepG2 cells, read-out: Inhibition

| Structure (SMILES) | cytotoxicity at 70.5 h [%] |
| --- | --- |
| Cc1cccc(NC2CCN(C(=O)Nc3cc(F)cc(F)c3)CC2)n1 | 42.8 |
| Clc1ccc(OCCCN2CCN(c3cnccn3)CC2)cc1 | -6.78 |
| CCN1CCOCC2(C1)CN(C(=O)c1c(C)noc1C)CCO2 (stereo not drawn) | -3.94 |
| Cc1ccc(OC(C)CNC(=O)c2c[nH]nn2)cc1 (stereo not drawn) | -7.76 |
| CCCS(=O)(=O)N1CCN(c2cc(-n3ccnc3)nc(C)n2)CC1 | -3.96 |
| Cn1nc(COc2cncnc2)c2c1CCN(Cc1ccco1)C2 | 6.82 |
| CCc1cnc(CN(C(C)=O)C2CCN(Cc3nccn3C)C2)o1 (stereo not drawn) | 1.08 |
| Cc1nc(CN2CCCC2c2noc(C3CC3)n2)nc2ccccc12 (stereo not drawn) | 43.5 |
| c1ccc(-c2nc(CNCCn3cccn3)cs2)nc1 | 19.2 |
| Cn1cc(CN2CCc3nc(-c4ccccn4)nc(O)c3C2)cn1 | 22.4 |
| Cc1csc(N(C)C(=O)C2CC(=O)N(c3ccccc3F)C2)n1 (stereo not drawn) | -0.144 |
| c1cncc(CN2CCCC3(COCCN(c4cncnc4)C3)C2)c1 (stereo not drawn) | -6.01 |
| CN(C)C(=O)c1ccc(C2CCCN2C(=O)c2ccccc2N(C)C)s1 (stereo not drawn) | -1.33 |
| Cc1nc(CSCCC(=O)Nc2cccc(N3CCNC3=O)c2)cs1 | -0.129 |
| CC(C)Cc1nc(NC(=O)c2cc(-c3cccnc3)n[nH]2)n[nH]1 | -5.07 |
| C=Cc1ccc(CN2CCCC3(CNC(=O)c4ccccc4O3)C2)cc1 (stereo not drawn) | 8.95 |
| OC1(CN2CCCC2)COCCN(c2nnc(-c3ccccc3)s2)C1 (stereo not drawn) | 15.8 |
| CCN1CCN(C(=O)c2[nH]c3ccccc3c2Cl)[C@H]2CS(=O)(=O)C[C@H]21 | -2.45 |
| Cc1nnsc1C(=O)NCC1CCN(c2ccccn2)CC1 | -8.36 |
| CS(=O)(=O)N1CCCC12CCN(Cc1nccs1)C2 (stereo not drawn) | -1.64 |
| COc1ccccc1OCCC(=O)NCc1ncc(C)c(OC)c1C | -4.64 |

| Structure (SMILES) | cytotoxicity at 70.5 h [%] |
| --- | --- |
| CCCc1nnc(NCc2ccc(OC)c(C#N)c2)o1 | 20.2 |
| COc1cc(-c2cccc3c2OC(CN)C3)ccc1O (stereo not drawn) | 14.1 |
| Cn1cccc1CN1CCC2(CCCN(C(=O)Cc3cccnc3)C2)C1 (stereo not drawn) | 24.8 |
| Cc1nn(C)c(C)c1C1CCCN1C(=O)c1ccc(N(C)C)nc1 (stereo not drawn) | -0.439 |
| CN1CCC(c2cncc(Cl)n2)CC1 | -5.05 |
| CN(C)CCN(C(=O)Cc1ccc2c(c1)OCCO2)C1CCN(C)CC1 | 2.11 |
| COc1ccc(Br)c(C(=O)NCCNc2ccc(C(F)(F)F)cn2)c1 | -13.7 |
| CCn1ccnc1CN1CCCN(C(=O)c2ccnc(C)n2)CC1 | 14.4 |
| COc1ccccc1-n1nc(C(C)C)nc1Cc1nnc(N)s1 | -12.4 |
| O=C(NCC1CCCN1CCc1ccccc1)NCC1(O)CCC1 (stereo not drawn) | -9.32 |
| CN(C)Cc1ccnc(C2CCCN2Cc2cc3ccccc3s2)n1 (stereo not drawn) | -1.24 |
| Cc1ccccc1N1CCN(c2nc(N(C)C)nc3c2CCNC3)CC1 | 33.6 |
| Cc1noc(C2CCCCN2C(=O)NC2CCCC2)n1 (stereo not drawn) | -7.87 |
| CN(Cc1nc(Cc2ccccc2F)no1)CC1Cc2ccccc2O1 (stereo not drawn) | 8.45 |
| CC(=O)N[C@H]1CCN2C(=O)[C@@H](Cc3c[nH]c4ccccc34)NC(=O)[C@H]12 | -13.3 |
| CC(=O)N1CC(=O)N(c2cnn(C)c2)CC12CCN(Cc1ccoc1)C2 (stereo not drawn) | 1.31 |
| C[C@@H]1CN(Cc2cn(C)nc2-c2ccccc2F)C[C@H](C)O1 | -11.3 |
| CCOc1cccc(COC(=O)c2cscn2)n1 | -4.87 |
| Cc1ccc2cc(CN(C)Cc3ccccn3)c(=O)[nH]c2c1 | 12.4 |
| Cc1nc(CN2CCCC(Nc3ncnc4ccsc34)C2)no1 (stereo not drawn) | -9.16 |
| CC(=O)c1cccc(NC(=O)NCCc2nnc[nH]2)c1 | -10.6 |

| Structure (SMILES) | cytotoxicity at 70.5 h [%] |
| --- | --- |
| CCn1ccnc1CN1CCCN(C(=O)Cc2ccc(C)cc2)CC1 | -1.67 |
| CN(CC(N)=O)C(=O)C1Cc2cc(Cl)ccc2O1 (stereo not drawn) | -5.33 |
| Cc1nc(CCN2CCC(Oc3ccccc3F)CC2)cs1 | 9.73 |
| CC(C)N1CCC(c2nc3ccc(-c4ccnn4C)cn3n2)CC1 | 19.8 |
| c1ccc2sc(N3CCOC(Cn4cccn4)C3)nc2c1 (stereo not drawn) | 3.57 |
| Cn1cc(CC2CCN(C(=O)NCc3cccc(C(N)=O)c3)C2)cn1 (stereo not drawn) | -13.1 |
| Cc1n[nH]c(C)c1CNC(=O)NC1CCCN(c2ccccc2F)C1 (stereo not drawn) | 6.33 |
| COc1c(C2CCCN2CC(=O)Nc2cc(C)nn2C)c(C)nn1C (stereo not drawn) | -3.3 |
| CN(Cc1nnn(CC2CCC2)n1)C(=O)c1ccccc1 | -2.78 |
| COCCC1CCCCN1C(=O)c1coc(COc2ccccc2F)n1 (stereo not drawn) | -1.11 |
| CC(=O)NCc1noc2c1CN(CCN1CCCC1)CC2 | -8.27 |
| CS(=O)(=O)N1CCC2(CCCN(CCCc3ccccc3)C2=O)C1 (stereo not drawn) | -6.93 |
| O=C(NCC1(O)CCCCC1)c1coc(COc2cccc(F)c2)n1 | 1.09 |
| Cc1cccc(NCCOc2cccc(C#N)c2)c1C(N)=O | 16.4 |
| CC(C)CN(Cc1ccccn1)Cc1ccccc1C(=O)O | 14.4 |
| Fc1ccc(C2CCCN2Cc2nnnn2C2CC2)cc1 (stereo not drawn) | 28.2 |
| Cc1cccc(C(=O)N2CCCCC2c2nc(C)cs2)n1 (stereo not drawn) | -12.3 |
| COC[C@@]12CCO[C@@H]1CCN(Cc1sccc1C)C2 | -10.6 |
| C=C(C)COc1ccccc1C(=O)N1CCC(C(=O)NCC)C1 (stereo not drawn) | -0.0263 |
| Fc1cccc(Cl)c1CN1CCC(c2n[nH]c3ncccc23)CC1 | 13.7 |
| COC(C)(C)CNC(=O)C1CCC(=O)N(C2CCCC2)C1 (stereo not drawn) | 0.695 |

| Structure (SMILES) | cytotoxicity at 70.5 h [%] |
| --- | --- |
| Cn1nnc2c1CCN(Cc1nccs1)C2COCc1ccccc1 (stereo not drawn) | -2.36 |
| O=C(c1ccno1)N1CCOC[C@H](Oc2ccccc2)C1 | -3.41 |
| CCc1c(C)[nH]c(C2(N)CCCCC2)nc1=O | 0.763 |
| N#CCCN(c1ccccc1)S(=O)(=O)CC1CCCCO1 (stereo not drawn) | -9.85 |
| O=C(O)c1cc2c(nc1-c1cncnc1)CCN(C1CCOC1)CC2 (stereo not drawn) | 11.3 |
| Cc1cc(F)ccc1OC1(C(=O)O)CCN(Cc2nccn2C)CC1 | -7.09 |
| CC(C)n1cnnc1C1CCCN(S(=O)(=O)c2c[nH]cn2)C1 (stereo not drawn) | -78.9 |
| O=C(C1CC1)N1CCN(c2ccc(-n3cncn3)nn2)CC1 | -3.85 |
| CSCC(=O)N1CCOC(c2nc(C(C)(C)C)n[nH]2)C1 (stereo not drawn) | -0.6 |
| Cc1nn(C)c(N(C)C)c1CNC(C)COc1ccc(F)cc1 (stereo not drawn) | -4.85 |
| Cc1ncsc1C(=O)N1CCC(O)(Cn2c(C)cc3ccncc32)CC1 | -0.305 |
| CCCN1CC2(CCN(C)CC2)CC1C(=O)NCCn1cccn1 (stereo not drawn) | -6 |
| O=C(Cc1ccc(S(=O)(=O)C(F)F)cc1)N1CCCC1 | -5.59 |
| O=S(=O)(c1cc(F)ccc1F)N1CCCC1c1ccncc1 (stereo not drawn) | -3.85 |
| Cc1noc(CCCC(=O)N2CSCC2C(=O)NCC2CC2)n1 (stereo not drawn) | -7.96 |
| CN(CC1Cc2ccccc2CN1C)C(=O)CSc1nccn1C (stereo not drawn) | -8.61 |
| Cc1cc(C2CCCN(Cc3ncc(C(C)C)o3)C2)n[nH]1 (stereo not drawn) | -6.54 |
| CCNC(=O)[C@@H]1C[C@H](NC(=O)c2cncnc2C)CN1Cc1ccsc1 | -17 |
| Fc1ccc(N2CCOC3(COCCN(c4ncccn4)C3)C2)cc1 (stereo not drawn) | -6.83 |
| O=C(CCCC(=O)NCc1cccc(Br)c1)NCCN1CCCC1 | 1.2 |
